Laboratory results as given in ChEMBL document CHEMBL1201862, “PubChem BioAssay data set” (2004).
The source made the active and inactive calls.

Assays:
[1] = alpha-synuclein stem-loop luciferase translation blockers – H4 neuroglioma cells, luminescence, confirmation (AID 1988); assay type: functional, cell-based
[2] = Luminescence Cell-Based Dose Response HTS to Identify Inhibitors of 5'UTR Stem-Loop Driven Prion Protein mRNA Translation in H4 Neuroglioblastoma Cells. [Related pubchem assays: 1827 (Project Summary), 1813 (Primary HTS)]; assay type: functional
[3] = test system: INS1; assay: INS-1E survival protection against cytokine death – cell-based, luminescence, retest, dose response (AID 449756); assay type: functional; settings: Rattus norvegicus;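 further: cell death triggered by IL-1 beta plus TNF-alpha plus IFN-gamma mixture; protective hits raise ATP signal compared with cytokine alone wells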
[4] = luciferase reporter signal suppression in cells – H4 neuroglioma cells, luminescence, dose response (AID 1990); assay type: functional, cell-based
[5] = activation of miR-122 Renilla sensor silencing – cell-based, Huh7 psiCHECK-miR122, Renilla luciferase, cherry-picked, dose response (AID 651956); assay type: functional;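 further: huh7 hepatoma cells stably carrying a psiCHECK-2 miR-122 sensor plasmid; renilla luciferase signal reporting endogenous miR-122 activity after 48 h compound exposure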
[6] = Fluorescence-based cell-based high throughput dose response assay for inhibitors of the interaction of nucleotide-binding oligomerization domain containing 2 (NOD2) and the receptor-interacting serine-threonine kinase 2 (RIPK2).; assay type: functional; settings: Homo sapiens
[7] = general mammalian cell viability loss – inhibitor set, cherry-pick, set 2, cytotoxicity control for miR-122 modulator project, dose response (AID 720697); assay type: functional, cell-based
[8] = biological target: T1, Voltage-gated N-type calcium channel alpha-1B subunit/Amyloid beta A4 precursor protein-binding family A member 1 (Homo sapiens, UniProt Q00975+Q02410); assay type: protein assay
[9] = biological target: T2, Zinc finger protein mex-5 (Caenorhabditis elegans, UniProt Q9XUB2); assay: potency of MEX-5 RNA-binding blockers – biochemical, C. elegans, fluorescence polarization, dose response (AID 1960)
T2 sequence (Q9XUB2 whole entry): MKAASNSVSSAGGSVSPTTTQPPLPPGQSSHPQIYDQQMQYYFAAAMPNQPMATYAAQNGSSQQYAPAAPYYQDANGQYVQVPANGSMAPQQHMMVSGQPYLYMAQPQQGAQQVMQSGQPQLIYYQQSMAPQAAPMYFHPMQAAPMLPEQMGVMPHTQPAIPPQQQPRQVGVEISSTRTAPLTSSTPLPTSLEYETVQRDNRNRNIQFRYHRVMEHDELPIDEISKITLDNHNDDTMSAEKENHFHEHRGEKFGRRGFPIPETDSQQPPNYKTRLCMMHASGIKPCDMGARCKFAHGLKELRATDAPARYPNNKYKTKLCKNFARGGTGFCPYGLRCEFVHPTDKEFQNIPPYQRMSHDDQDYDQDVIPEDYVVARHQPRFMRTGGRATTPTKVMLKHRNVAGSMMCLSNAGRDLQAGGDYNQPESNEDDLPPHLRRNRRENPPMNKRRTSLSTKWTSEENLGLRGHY

[10] = biological target: T3, Sentrin-specific protease 8 (Homo sapiens, UniProt Q96LD8); assay type: functional;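 further: kinetic enzyme assay of SENP8 cleaving a Nedd8 protein substrate, dose-response confirmation of screening hits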
T3 sequence (Q96LD8 whole entry): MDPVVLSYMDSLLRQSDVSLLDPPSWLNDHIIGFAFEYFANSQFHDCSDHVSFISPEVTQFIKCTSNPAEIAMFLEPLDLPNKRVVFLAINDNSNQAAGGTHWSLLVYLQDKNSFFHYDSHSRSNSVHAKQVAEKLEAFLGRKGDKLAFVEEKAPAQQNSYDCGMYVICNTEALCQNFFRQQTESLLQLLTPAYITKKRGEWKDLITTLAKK

[11] = biological target: T1, Voltage-gated N-type calcium channel alpha-1B subunit/Amyloid beta A4 precursor protein-binding family A member 1; assay type: protein assay; remark: listed apart in the source
[12] = biological target: SUMO-activating enzyme (Homo sapiens, UniProt Q9UBT2); assay: blockers of SAE1/SAE2–UBC9 SUMO transfer – biochemical, HTRF, uHTS, primary screen (AID 2006); assay type: protein-complex assay
[13] = biological target: T4, RNA-binding protein pos-1 (Caenorhabditis elegans, UniProt G5EF15); assay: disruptors of C. elegans POS-1 RNA interaction – biochemical, fluorescence polarization, dose response (AID 1964);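 further: purified POS-1 fused to maltose binding protein made in E. coli; potency of compounds blocking POS-1 binding to fluorescent RNA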
T4 sequence (G5EF15 whole entry): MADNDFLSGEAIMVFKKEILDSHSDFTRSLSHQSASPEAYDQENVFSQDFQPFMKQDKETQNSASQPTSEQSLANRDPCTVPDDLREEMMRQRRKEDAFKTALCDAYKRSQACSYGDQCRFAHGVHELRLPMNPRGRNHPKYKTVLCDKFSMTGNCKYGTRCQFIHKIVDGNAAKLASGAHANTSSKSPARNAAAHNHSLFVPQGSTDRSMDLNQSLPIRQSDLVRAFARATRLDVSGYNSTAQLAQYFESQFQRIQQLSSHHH

[14] = cells; assay type: functional, cell-based
[15] = biological target: T5, Long-chain-fatty-acid--AMP ligase FadD28 (Mycobacterium tuberculosis, UniProt P9WQ59); assay: Fluorescence polarization aasay to screen for inhibitors that compete for the binding of FadD28 to a bisubstrate Measured in Biochemical System Using Plate Reader - 2147-01_Inhibitor_Dose_CherryPick_Activity.; assay type: functional, Mycobacterium tuberculosis H37Rv
T5 sequence (P9WQ59 whole entry): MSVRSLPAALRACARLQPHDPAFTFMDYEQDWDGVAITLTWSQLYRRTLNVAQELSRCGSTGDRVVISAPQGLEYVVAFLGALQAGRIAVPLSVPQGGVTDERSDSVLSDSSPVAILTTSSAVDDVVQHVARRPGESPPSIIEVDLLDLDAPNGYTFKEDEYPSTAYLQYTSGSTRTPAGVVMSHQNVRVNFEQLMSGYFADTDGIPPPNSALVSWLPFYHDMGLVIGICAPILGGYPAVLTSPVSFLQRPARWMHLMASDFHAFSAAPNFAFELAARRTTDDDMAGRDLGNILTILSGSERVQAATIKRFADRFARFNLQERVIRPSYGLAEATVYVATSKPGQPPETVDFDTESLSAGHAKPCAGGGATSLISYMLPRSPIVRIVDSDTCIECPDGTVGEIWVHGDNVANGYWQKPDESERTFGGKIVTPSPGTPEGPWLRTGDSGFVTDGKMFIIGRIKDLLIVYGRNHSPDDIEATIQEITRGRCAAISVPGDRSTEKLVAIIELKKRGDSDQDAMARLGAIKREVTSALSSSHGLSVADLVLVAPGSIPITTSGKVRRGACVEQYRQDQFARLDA

T1 sequence (Q00975 whole entry): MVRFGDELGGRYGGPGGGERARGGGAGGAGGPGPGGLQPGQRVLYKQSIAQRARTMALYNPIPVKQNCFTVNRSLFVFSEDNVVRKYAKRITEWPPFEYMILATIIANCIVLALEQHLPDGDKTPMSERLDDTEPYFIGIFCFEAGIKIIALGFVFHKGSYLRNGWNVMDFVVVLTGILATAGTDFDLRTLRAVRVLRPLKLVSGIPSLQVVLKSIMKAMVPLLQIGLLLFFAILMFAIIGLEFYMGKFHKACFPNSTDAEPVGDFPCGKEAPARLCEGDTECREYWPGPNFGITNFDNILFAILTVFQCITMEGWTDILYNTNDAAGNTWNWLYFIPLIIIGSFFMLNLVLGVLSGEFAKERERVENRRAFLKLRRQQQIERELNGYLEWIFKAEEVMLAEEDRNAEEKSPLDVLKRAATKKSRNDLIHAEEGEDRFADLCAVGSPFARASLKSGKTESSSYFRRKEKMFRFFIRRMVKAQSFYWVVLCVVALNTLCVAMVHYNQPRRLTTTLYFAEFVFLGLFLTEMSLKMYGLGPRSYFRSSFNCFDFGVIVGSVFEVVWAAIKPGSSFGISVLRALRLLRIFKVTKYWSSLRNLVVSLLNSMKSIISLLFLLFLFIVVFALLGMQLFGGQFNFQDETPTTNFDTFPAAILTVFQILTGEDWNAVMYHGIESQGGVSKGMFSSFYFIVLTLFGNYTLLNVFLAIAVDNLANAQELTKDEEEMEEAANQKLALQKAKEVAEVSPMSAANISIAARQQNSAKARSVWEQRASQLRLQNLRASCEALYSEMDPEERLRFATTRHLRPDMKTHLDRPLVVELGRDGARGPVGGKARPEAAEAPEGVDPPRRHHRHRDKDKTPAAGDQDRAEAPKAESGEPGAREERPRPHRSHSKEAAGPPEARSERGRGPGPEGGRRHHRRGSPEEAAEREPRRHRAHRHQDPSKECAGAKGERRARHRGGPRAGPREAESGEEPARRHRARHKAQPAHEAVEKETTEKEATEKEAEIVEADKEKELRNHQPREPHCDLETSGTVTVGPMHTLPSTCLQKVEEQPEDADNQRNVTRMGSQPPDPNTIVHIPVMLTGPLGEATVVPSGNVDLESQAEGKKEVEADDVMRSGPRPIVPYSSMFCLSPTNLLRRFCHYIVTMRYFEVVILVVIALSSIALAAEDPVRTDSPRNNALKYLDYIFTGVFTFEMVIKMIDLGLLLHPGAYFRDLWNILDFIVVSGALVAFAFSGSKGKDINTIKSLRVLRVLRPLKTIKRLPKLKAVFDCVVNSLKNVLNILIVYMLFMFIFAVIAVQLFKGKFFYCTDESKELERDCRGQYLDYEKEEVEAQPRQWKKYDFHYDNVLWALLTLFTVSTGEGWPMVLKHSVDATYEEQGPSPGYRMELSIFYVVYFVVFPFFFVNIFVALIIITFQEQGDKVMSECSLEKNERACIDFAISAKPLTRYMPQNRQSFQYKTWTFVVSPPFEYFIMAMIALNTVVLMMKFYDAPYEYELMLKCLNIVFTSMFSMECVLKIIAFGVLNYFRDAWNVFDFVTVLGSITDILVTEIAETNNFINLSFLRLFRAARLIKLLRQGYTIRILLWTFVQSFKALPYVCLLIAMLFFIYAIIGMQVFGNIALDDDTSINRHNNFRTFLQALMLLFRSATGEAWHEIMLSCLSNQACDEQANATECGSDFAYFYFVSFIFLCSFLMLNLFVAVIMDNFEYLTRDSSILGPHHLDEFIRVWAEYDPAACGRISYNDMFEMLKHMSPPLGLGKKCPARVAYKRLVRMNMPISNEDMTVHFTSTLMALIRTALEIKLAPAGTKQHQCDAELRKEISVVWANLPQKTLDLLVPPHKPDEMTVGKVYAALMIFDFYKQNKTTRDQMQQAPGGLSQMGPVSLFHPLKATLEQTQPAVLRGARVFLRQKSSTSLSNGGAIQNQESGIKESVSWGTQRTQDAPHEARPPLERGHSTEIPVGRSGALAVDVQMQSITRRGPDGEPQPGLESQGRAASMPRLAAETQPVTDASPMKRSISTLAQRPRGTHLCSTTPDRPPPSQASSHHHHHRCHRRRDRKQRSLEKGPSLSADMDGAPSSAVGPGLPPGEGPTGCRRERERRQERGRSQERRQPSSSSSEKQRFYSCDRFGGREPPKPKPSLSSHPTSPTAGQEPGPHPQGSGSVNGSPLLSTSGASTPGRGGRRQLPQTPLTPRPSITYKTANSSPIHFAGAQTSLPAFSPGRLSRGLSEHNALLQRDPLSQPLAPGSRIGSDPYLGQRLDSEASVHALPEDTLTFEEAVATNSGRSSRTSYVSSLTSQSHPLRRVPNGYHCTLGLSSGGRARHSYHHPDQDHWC
T1 sequence (Q02410 whole entry): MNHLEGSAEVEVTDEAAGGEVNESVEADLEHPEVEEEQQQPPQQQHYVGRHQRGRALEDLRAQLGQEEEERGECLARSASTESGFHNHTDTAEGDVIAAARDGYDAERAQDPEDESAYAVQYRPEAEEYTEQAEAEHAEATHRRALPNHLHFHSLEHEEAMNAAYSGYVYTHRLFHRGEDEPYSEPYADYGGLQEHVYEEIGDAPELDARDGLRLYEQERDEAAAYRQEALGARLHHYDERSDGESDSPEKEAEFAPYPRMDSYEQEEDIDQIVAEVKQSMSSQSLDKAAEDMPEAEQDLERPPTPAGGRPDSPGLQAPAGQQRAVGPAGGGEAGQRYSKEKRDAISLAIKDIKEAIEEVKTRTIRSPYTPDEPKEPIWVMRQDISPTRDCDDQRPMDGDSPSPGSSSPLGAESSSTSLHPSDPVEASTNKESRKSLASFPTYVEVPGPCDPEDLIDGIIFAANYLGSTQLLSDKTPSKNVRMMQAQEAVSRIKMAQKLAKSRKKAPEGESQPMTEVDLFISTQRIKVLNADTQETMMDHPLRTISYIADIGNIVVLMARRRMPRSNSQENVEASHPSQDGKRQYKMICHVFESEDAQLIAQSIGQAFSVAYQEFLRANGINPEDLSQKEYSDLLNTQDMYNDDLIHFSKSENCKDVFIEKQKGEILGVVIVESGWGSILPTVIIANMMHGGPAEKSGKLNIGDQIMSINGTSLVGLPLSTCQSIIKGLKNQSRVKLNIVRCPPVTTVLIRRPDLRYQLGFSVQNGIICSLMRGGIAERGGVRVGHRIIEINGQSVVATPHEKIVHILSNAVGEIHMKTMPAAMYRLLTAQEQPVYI
Chain of SUMO-activating enzyme (Q9UBE0 whole entry, the tested form may be a part): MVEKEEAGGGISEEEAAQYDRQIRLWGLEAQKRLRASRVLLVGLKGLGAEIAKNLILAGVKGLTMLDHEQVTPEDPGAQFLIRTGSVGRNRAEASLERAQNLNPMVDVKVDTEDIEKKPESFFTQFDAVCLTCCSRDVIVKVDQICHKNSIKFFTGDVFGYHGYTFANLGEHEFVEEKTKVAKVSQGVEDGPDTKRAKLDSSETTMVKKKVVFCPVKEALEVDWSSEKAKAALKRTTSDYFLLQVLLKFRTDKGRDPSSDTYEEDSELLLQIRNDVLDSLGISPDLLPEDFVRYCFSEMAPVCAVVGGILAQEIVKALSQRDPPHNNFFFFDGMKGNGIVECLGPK
Chain of SUMO-activating enzyme (Q9UBT2 whole entry, the tested form may be a part): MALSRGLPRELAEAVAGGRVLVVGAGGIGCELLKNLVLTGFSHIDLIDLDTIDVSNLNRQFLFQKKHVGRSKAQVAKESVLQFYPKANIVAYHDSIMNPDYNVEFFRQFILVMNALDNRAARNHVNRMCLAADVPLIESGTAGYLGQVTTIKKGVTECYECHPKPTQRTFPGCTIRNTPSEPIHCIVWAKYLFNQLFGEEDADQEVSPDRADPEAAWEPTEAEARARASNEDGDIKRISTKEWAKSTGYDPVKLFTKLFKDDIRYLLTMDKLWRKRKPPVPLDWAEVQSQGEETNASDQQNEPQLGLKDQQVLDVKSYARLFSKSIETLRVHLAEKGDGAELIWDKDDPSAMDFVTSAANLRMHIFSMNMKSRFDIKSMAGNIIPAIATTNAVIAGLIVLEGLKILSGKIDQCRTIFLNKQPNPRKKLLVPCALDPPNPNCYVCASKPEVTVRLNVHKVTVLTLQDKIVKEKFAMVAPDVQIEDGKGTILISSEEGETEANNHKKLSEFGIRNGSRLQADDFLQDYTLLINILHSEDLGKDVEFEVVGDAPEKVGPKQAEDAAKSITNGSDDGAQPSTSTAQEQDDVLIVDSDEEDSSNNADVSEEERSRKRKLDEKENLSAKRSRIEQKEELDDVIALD

For `O=C(Nc1cccc(NC(=O)c2ccccc2Cl)c1)c1ccc([N+](=O)[O-])o1`, the EC50 [1] was 8.12 µM (active), the EC50 [2] was 9.73 µM (active) and the AC50 [3] was 7.35 µM (active). The EC50 [4] was 8.33 µM (active).

With `COc1ccc(CC2=CC(=O)c3ccccc3C2=O)cc1` the AC50 [5] was 20.7 µM (active), the IC50 [6] was 4.12 µM (active) and the AC50 [7] was 10.2 µM (active).

With `c1coc(-c2nnc(-c3ccco3)nn2)c1` the IC50 [8] was 17.7 µM (active), the EC50 [9] was 7.69 µM (active) and the IC50 [10] was 5.41 µM (active). For the same compound, the IC50 [11] was 1.66 µM (active), the IC50 [12] was 6.47 µM (active) and the EC50 [13] was 7.92 µM (inconclusive).

In the case of `Cn1c(O)c(/C=N/NC(=O)c2cc3ccccc3cc2O)c2ccccc21`, the EC50 [14] is reported as 128 µM (active) and the AC50 [15] is reported as > 100 µM (inactive).
